The test relates to nude mice, LOX melanoma ip, survival T/C. Kind of test: NCI In Vivo Anticancer Drug Screen. Data for tumor model Human Amelanotic Melanoma (LOX) (intraperitoneal) in NU/NU BALB/C (nude) mice. The note with it: endpoint: median survival time, higher = longer survival. The protocol:
The antitumor activity of compounds was measured in mice bearing transplantable tumors. Survival or tumor size were measured and the results are expressed as the measurement made in the treated group (T) divided by the measurement made in the vehicle treated control group (C). The tumor model used in this assay is Human Amelanotic Melanoma (LOX) (intraperitoneal) in NU/NU BALB/C (nude) mice

Setting [1] is: dose: 3.13 mg/kg/injection, schedule: Q04DX003 (ip), vehicle: saline with Tween-80.
Setting [2] is: dose: 6.25 mg/kg/injection, schedule: Q04DX003 (ip), vehicle: saline with Tween-80.

“And” between values parts separate entries of the source, which are not always exact repeats. Equal values may be shown once. Toxic doses and inconclusive results are not listed.

With `C/C=C/C=C/c1cc2cc3c(c(O)c2c(=O)[nH]1)C1(CC3)C(O)=c2c(=O)c3c(=O)cc(OC)c(=O)c=3c(=O)c2=C1O` (stereo not drawn), the T/C is 155 % of control (dose: 1.0 mg/kg/injection, schedule: Q04DX003 (ip), vehicle: water); 155 % of control (dose: 1.8 mg/kg/injection, schedule: Q04DX003 (ip), vehicle: water); 169 % of control and 177 % of control (dose: 3.0 mg/kg/injection, schedule: Q04DX003 (ip), vehicle: water); 177 % of control (dose: 5.0 mg/kg/injection, schedule: Q04DX003 (ip), vehicle: water); 189 % of control (dose: 8.3 mg/kg/injection, schedule: Q04DX003 (ip), vehicle: water).
Consider `COc1cc(NCc2ccc3nc(N)nc(N)c3c2C)cc(OC)c1OC`, for which the T/C (dose: 7.5 mg/kg/injection, schedule: Q04DX003 (ip), vehicle: Klucel (hydroxypropylcellulose) (HPC)) is 151 % of control; the T/C (dose: 15.0 mg/kg/injection, schedule: Q04DX003 (ip), vehicle: Klucel (hydroxypropylcellulose) (HPC)) was 118 % of control; the T/C (dose: 30.0 mg/kg/injection, schedule: Q04DX003 (ip), vehicle: Klucel (hydroxypropylcellulose) (HPC)) is 118 % of control; the T/C (dose: 60.0 mg/kg/injection, schedule: Q04DX003 (ip), vehicle: Klucel (hydroxypropylcellulose) (HPC)) was 123 % of control.
As for `S=C(N/N=C1/CCCC/C1=N/NC(=S)N1CCOCC1)N1CCOCC1`, the T/C was 116 % of control under setting [1]; 117 % of control under setting [2]; 110 % of control (dose: 12.5 mg/kg/injection, schedule: Q04DX003 (ip), vehicle: saline with Tween-80).
With `O=C(C/C(=N\C(=S)Nc1cc(C(F)(F)F)ccc1Cl)NO)N1CCCC1`, the T/C is 115 % of control (dose: 50.0 mg/kg/injection, schedule: Q04DX003 (ip), vehicle: saline with Tween-80); 96 % of control (dose: 100.0 mg/kg/injection, schedule: Q04DX003 (ip), vehicle: saline with Tween-80); 108 % of control (dose: 200.0 mg/kg/injection, schedule: Q04DX003 (ip), vehicle: saline with Tween-80).
Regarding `CO[C@@]12[C@H](COC(N)=O)C3=C(C(=O)C(C)=C(N)C3=O)N1C[C@@H]1N[C@@H]12`, the T/C was 116 % of control (dose: 1.34 mg/kg/injection, schedule: Q04DX003 (ip), vehicle: saline); 119 % of control (dose: 1.34 mg/kg/injection, schedule: Q04DX003 (iv), vehicle: saline); 111 % of control (dose: 2.0 mg/kg/injection, schedule: Q04DX003 (ip), vehicle: saline); 166 % of control (dose: 2.0 mg/kg/injection, schedule: Q04DX003 (iv), vehicle: saline); 272 % of control (dose: 3.0 mg/kg/injection, schedule: Q04DX003 (ip), vehicle: saline); 168 % of control (dose: 3.0 mg/kg/injection, schedule: Q04DX003 (iv), vehicle: saline). Further, the T/C was 116 % of control (dose: 4.5 mg/kg/injection, schedule: Q04DX003 (ip), vehicle: saline) and 150 % of control (dose: 4.5 mg/kg/injection, schedule: Q04DX003 (iv), vehicle: saline).
In the case of `CC1(C)Nc2cc3c(cc2-n2cccc21)oc1ccccc13`, the T/C (dose: 37.5 mg/kg/injection, schedule: Q04DX003 (ip), vehicle: DMSO) was 100 % of control; the T/C (dose: 75.0 mg/kg/injection, schedule: Q04DX003 (ip), vehicle: DMSO) was 100 % of control; the T/C (dose: 150.0 mg/kg/injection, schedule: Q04DX003 (ip), vehicle: DMSO) is 117 % of control; the T/C (dose: 300.0 mg/kg/injection, schedule: Q04DX003 (ip), vehicle: DMSO) was 91 % of control.
With `CS(=O)(=O)CS(=O)(=O)OCCF`, the T/C runs as follows: (dose: 3.13 mg/kg/injection, schedule: Q04DX003 (ip), vehicle: saline) 152 % of control; (dose: 6.25 mg/kg/injection, schedule: Q04DX003 (ip), vehicle: saline) 295 % of control; (dose: 12.5 mg/kg/injection, schedule: Q04DX003 (ip), vehicle: saline) 295 % of control; (dose: 25.0 mg/kg/injection, schedule: Q04DX003 (ip), vehicle: saline) 295 % of control; (dose: 50.0 mg/kg/injection, schedule: Q04DX003 (ip), vehicle: saline) 295 % of control.
`O=C1CC2(C(=O)N1CN1CCOCC1)c1ccccc1-c1ccccc12`: the T/C reads like this: (dose: 75.0 mg/kg/injection, schedule: Q04DX003 (ip), vehicle: Klucel (hydroxypropylcellulose) (HPC)) 102 % of control; (dose: 150.0 mg/kg/injection, schedule: Q04DX003 (ip), vehicle: Klucel (hydroxypropylcellulose) (HPC)) 98 % of control; (dose: 300.0 mg/kg/injection, schedule: Q04DX003 (ip), vehicle: Klucel (hydroxypropylcellulose) (HPC)) 103 % of control; (dose: 600.0 mg/kg/injection, schedule: Q04DX003 (ip), vehicle: Klucel (hydroxypropylcellulose) (HPC)) 120 % of control.
`CCC(NC(N)=O)C(CC)NC(N)=O` (stereo not drawn): the T/C reads like this: under setting [1], 103 % of control; under setting [2], 109 % of control; (dose: 25.0 mg/kg/injection, schedule: Q04DX003 (ip), vehicle: saline with Tween-80) 105 % of control.
As for `CC1OC(O[C@H]2/C=C/C=C/C=C/C=C/C=C/C=C/C=C/[C@H](C)[C@@H](O)[C@@H](C)[C@H](C)OC(=O)C[C@H](O)C[C@H](O)CC[C@@H](O)[C@H](O)C[C@H](O)C[C@]3(O)C[C@H](O)[C@@H](C(=O)O)[C@H](C2)O3)C(O)C(N)C1O` (stereo partly drawn), the T/C is 110 % of control (dose: 12.5 mg/kg/injection, schedule: Q04DX003 (ip), vehicle: saline + Tween-80 + alcohol) and 107 % of control (dose: 25.0 mg/kg/injection, schedule: Q04DX003 (ip), vehicle: saline + Tween-80 + alcohol).
As to `CCOC(=O)Nc1cc(NC(C)/C(=N/O)c2ccccc2)c([N+](=O)[O-])c(N)n1` (stereo not drawn), the T/C was 97 % of control (dose: 50.0 mg/kg/injection, schedule: Q04DX003 (ip), vehicle: Klucel (hydroxypropylcellulose) (HPC)); 109 % of control (dose: 51.84 mg/kg/injection, schedule: Q04DX003 (ip), vehicle: Klucel (hydroxypropylcellulose) (HPC)); 104 % of control (dose: 86.4 mg/kg/injection, schedule: Q04DX003 (ip), vehicle: Klucel (hydroxypropylcellulose) (HPC)); 89 % of control (dose: 144.0 mg/kg/injection, schedule: Q04DX003 (ip), vehicle: Klucel (hydroxypropylcellulose) (HPC)); 101 % of control (dose: 240.0 mg/kg/injection, schedule: Q04DX003 (ip), vehicle: Klucel (hydroxypropylcellulose) (HPC)).
As to `CN(C)[C@@H]1C(=O)C(C(=O)NCN2CCN(C(=N)N=C(N)N)CC2)=C(O)[C@@]2(O)C(=O)C3=C(O)c4c(O)cccc4[C@@](C)(O)[C@H]3C[C@@H]12`, the T/C runs as follows: (dose: 1.25 mg/kg/injection, schedule: Q04DX003 (ip), vehicle: suspension in saline) 114 % of control; (dose: 2.5 mg/kg/injection, schedule: Q04DX003 (ip), vehicle: suspension in saline) 107 % of control; (dose: 3.6 mg/kg/injection, schedule: Q04DX003 (ip), vehicle: suspension in saline) 112 % of control; (dose: 5.0 mg/kg/injection, schedule: Q04DX003 (ip), vehicle: suspension in saline) 114 % of control; (dose: 6.0 mg/kg/injection, schedule: Q04DX003 (ip), vehicle: suspension in saline) 105 % of control; (dose: 10.0 mg/kg/injection, schedule: Q04DX003 (ip), vehicle: suspension in saline) 103 % of control and 100 % of control. For the same molecule, the T/C (dose: 17.0 mg/kg/injection, schedule: Q04DX003 (ip), vehicle: suspension in saline) is 112 % of control and the T/C (dose: 28.0 mg/kg/injection, schedule: Q04DX003 (ip), vehicle: suspension in saline) was 89 % of control.
For the molecule `CS(=O)(=O)Nc1ccc(C(=O)CCN2CCCCCC2)cc1`, the T/C reads like this: (dose: 37.5 mg/kg/injection, schedule: Q04DX003 (ip), vehicle: saline with Tween-80) 98 % of control; (dose: 75.0 mg/kg/injection, schedule: Q04DX003 (ip), vehicle: saline with Tween-80) 123 % of control; (dose: 150.0 mg/kg/injection, schedule: Q04DX003 (ip), vehicle: saline with Tween-80) 93 % of control; (dose: 300.0 mg/kg/injection, schedule: Q04DX003 (ip), vehicle: saline with Tween-80) 110 % of control.

Values taken from PubChem BioAssay AID280 (DTP/NCI, 2004).
